{"source": "patent US10597388B2", "about": "“Pyridazinone herbicides” (FMC CORPORATION, priority 2014, dated 2020)", "assay_type_in_all_cases": "in vivo", "key": {"[1]": {"tested_on": "wheat (winter wheat, Triticum aestivum)", "assay": "Test C greenhouse herbicide test, pre- and postemergence", "summary_of_the_method": "(§1)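 Preemergence: seeds sown in a loam soil–sand blend and sprayed with test chemicals in a non-phytotoxic solvent mixture containing surfactant. Postemergence: plants grown in peat-based medium and treated at 2 to 18 cm (1- to 4-leaf stage). After 13 to 15 d in a greenhouse, injury was visually rated 0–100 against controls.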"}, "[2]": {"tested_on": "barnyardgrass (Echinochloa crus-galli)", "assay": "Test C greenhouse herbicide test, pre- and postemergence", "summary_of_the_method": "as §1"}, "[3]": {"tested_on": "galium (catchweed bedstraw, Galium aparine)", "assay": "Test C greenhouse herbicide test, pre- and postemergence", "summary_of_the_method": "as §1"}, "[4]": {"tested_on": "nutsedge, yellow (yellow nutsedge, Cyperus esculentus)", "assay": "Test C greenhouse herbicide test, pre- and postemergence", "summary_of_the_method": "as §1"}, "[5]": {"tested_on": "blackgrass (Alopecurus myosuroides)", "assay": "Test A greenhouse herbicide test, postemergence", "summary_of_the_method": "(§2)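 Plants grown in loam soil/sand blend pots were treated postemergence at 2 to 10 cm height, one- to two-leaf stage, with formulated test chemicals. After approximately 10 d in a greenhouse, injury was rated visually against untreated controls on a 0 to 100 scale (0 no effect, 100 complete control).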"}, "[6]": {"tested_on": "galium (catchweed bedstraw, Galium aparine)", "assay": "Test A greenhouse herbicide test, postemergence", "summary_of_the_method": "as §2"}, "corn (Zea mays)": {"tested_on": "corn (Zea mays)", "assay": "Test A greenhouse herbicide test, pre- and postemergence", "settings": "Postemergence", "summary_of_the_method": "(§3)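 Seeds sown in loam–sand blend got a preemergence directed soil spray of compound in non-phytotoxic solvent with surfactant. Postemergence treatment was given at 2–10 cm, one- to two-leaf stage. After ~10 d in greenhouse, injury was rated visually vs untreated controls, 0 (no effect) to 100 (complete control).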"}, "[7]": {"tested_on": "ragweed (common ragweed, Ambrosia elatior)", "assay": "Test A greenhouse herbicide test, pre- and postemergence", "summary_of_the_method": "as §3"}, "[8]": {"tested_on": "pigweed (Amaranthus retroflexus)", "assay": "Test A greenhouse herbicide test, pre- and postemergence", "summary_of_the_method": "as §3"}, "[9]": {"tested_on": "foxtail, giant (giant foxtail, Setaria faberii)", "assay": "Test A greenhouse herbicide test, pre- and postemergence", "summary_of_the_method": "as §3"}, "[10]": {"tested_on": "barnyardgrass (Echinochloa crus-galli)", "assay": "Test A greenhouse herbicide test, pre- and postemergence", "summary_of_the_method": "as §3"}, "[11]": {"settings": "Postemergence, 31 g ai/ha, scale 0 to 100 (0 no effect, 100 complete control)"}, "[12]": {"settings": "Postemergence, 62 g ai/ha, 0 to 100 scale (0 no effect, 100 complete control)"}, "[13]": {"settings": "Postemergence, 250 g ai/ha, scale 0 to 100, 0 no effect, 100 complete control, 13 to 15 d"}, "[14]": {"settings": "postemergence, 125 g ai/ha, scale 0 to 100, 0 no effect, 100 complete control"}, "[15]": {"settings": "Postemergence, 125 g ai/ha, scale 0 to 100, 0 is no effect, 100 is complete control"}, "[16]": {"settings": "125 g ai/ha, 0 to 100 scale where 0 is no effect and 100 is complete control"}, "[17]": {"settings": "500 g ai/ha, visual rating after approx. 10 d, 0 to 100 scale (0 no effect, 100 complete control)"}, "[18]": {"settings": "Postemergence, 125 g ai/ha, 0 to 100 scale where 0 is no effect and 100 is complete control"}, "[19]": {"settings": "Postemergence, 500 g ai/ha, visual rating after approx. 10 d, 0 to 100 scale (0 no effect, 100 complete control)"}, "[20]": {"settings": "Preemergence, 125 g ai/ha, 0 to 100 scale where 0 is no effect and 100 is complete control"}, "[21]": {"settings": "Preemergence, 500 g ai/ha, 0 to 100 scale where 0 is no effect and 100 is complete control"}, "[22]": {"settings": "Preemergence, 31 g ai/ha, scale 0 to 100, 0 is no effect, 100 is complete control"}, "[23]": {"settings": "Preemergence, 62 g ai/ha, scale 0 to 100, 0 is no effect, 100 is complete control"}, "[24]": {"settings": "Preemergence, 125 g ai/ha, scale 0 to 100, 0 is no effect, 100 is complete control"}, "[25]": {"settings": "Preemergence, 250 g ai/ha, scale 0 to 100 (0 no effect, 100 complete control)"}}}
{"smiles": "Cc1nn(C)c(=O)c(-c2cccc3ccc(C#N)cc23)c1O", "note": "[Compound 127]", "values": [{"measurement": "Plant response rating, Wheat", "setting": "[1]; [11]", "value": 0}, {"measurement": "Wheat plant response rating", "setting": "[1]; [12]", "value": 5}, {"measurement": "Plant response rating, Wheat", "setting": "[1]; [13]", "value": 30}, {"measurement": "Wheat plant response rating", "setting": "[1]; [14]", "value": 5}, {"measurement": "Plant response rating, Barnyardgrass", "setting": "[2]; [11]", "value": 10}, {"measurement": "Barnyardgrass plant response rating", "setting": "[2]; [12]", "value": 20}, {"measurement": "Plant response rating, Barnyardgrass", "setting": "[2]; [15]", "value": 25}, {"measurement": "Plant response rating, Barnyardgrass", "setting": "[2]; [13]", "value": 25}, {"measurement": "Plant response rating, Galium", "setting": "[3]; [11]", "value": 75}, {"measurement": "Galium plant response rating", "setting": "[3]; [12]", "value": 80}, {"measurement": "Plant response rating, Galium", "setting": "[3]; [13]", "value": 90}, {"measurement": "Galium plant response rating", "setting": "[3]; [14]", "value": 85}, {"measurement": "Plant response rating, Nutsedge, Yellow", "setting": "[4]; [11]", "value": 10}, {"measurement": "Nutsedge, Yellow plant response rating", "setting": "[4]; [12]", "value": 35}, {"measurement": "Plant response rating, Nutsedge, Yellow", "setting": "[4]; [13]", "value": 70}, {"measurement": "Nutsedge, Yellow plant response rating", "setting": "[4]; [14]", "value": 60}, {"measurement": "Plant response rating, Blackgrass", "setting": "[5]; [16]", "value": 20}, {"measurement": "Plant response rating, Blackgrass", "setting": "[5]; [17]", "value": 50}, {"measurement": "Plant response rating, Galium", "setting": "[6]; [16]", "value": 90}, {"measurement": "Plant response rating, Galium", "setting": "[6]; [17]", "value": 100}, {"measurement": "Plant response rating, Corn", "setting": "corn (Zea mays); [16]", "value": 0}, {"measurement": "Plant response rating, Corn", "setting": "corn (Zea mays); [17]", "value": 10}, {"measurement": "Plant response rating, Ragweed", "setting": "[7]; [18]", "value": 60}, {"measurement": "Plant response rating, Ragweed", "setting": "[7]; [19]", "value": 80}, {"measurement": "Ragweed plant response rating", "setting": "[7]; [20]", "value": 30}, {"measurement": "Plant response rating, Ragweed", "setting": "[7]; [21]", "value": 70}, {"measurement": "Plant response rating, Pigweed", "setting": "[8]; [18]", "value": 90}, {"measurement": "Plant response rating, Pigweed", "setting": "[8]; [19]", "value": 100}, {"measurement": "Pigweed plant response rating", "setting": "[8]; [20]", "value": 70}, {"measurement": "Plant response rating, Pigweed", "setting": "[8]; [21]", "value": 100}, {"measurement": "Plant response rating, Foxtail, Giant", "setting": "[9]; [18]", "value": 10}, {"measurement": "Plant response rating, Foxtail, Giant", "setting": "[9]; [19]", "value": 60}, {"measurement": "Foxtail, Giant plant response rating", "setting": "[9]; [20]", "value": 50}, {"measurement": "Plant response rating, Foxtail, Giant", "setting": "[9]; [21]", "value": 60}, {"measurement": "Plant response rating, Barnyardgrass", "setting": "[10]; [18]", "value": 10}, {"measurement": "Plant response rating, Barnyardgrass", "setting": "[10]; [19]", "value": 50}, {"measurement": "Barnyardgrass plant response rating", "setting": "[10]; [20]", "value": 10}, {"measurement": "Plant response rating, Barnyardgrass", "setting": "[10]; [21]", "value": 40}]}
{"smiles": "CC(=O)Oc1c(Br)nn(C)c(=O)c1-c1c(C)ccc2ccccc12", "note": "[Compound 129]", "values": [{"measurement": "Plant response rating, Wheat", "setting": "[1]; [11]", "value": 10}, {"measurement": "Wheat plant response rating", "setting": "[1]; [12]", "value": 35}, {"measurement": "Plant response rating, Wheat", "setting": "[1]; [13]", "value": 55}, {"measurement": "Plant response rating, Wheat", "setting": "[1]; [22]", "value": 35}, {"measurement": "Plant response rating, Wheat", "setting": "[1]; [23]", "value": 50}, {"measurement": "Plant response rating, Wheat", "setting": "[1]; [24]", "value": 55}, {"measurement": "Wheat plant response rating", "setting": "[1]; [25]", "value": 85}, {"measurement": "Wheat plant response rating", "setting": "[1]; [14]", "value": 40}, {"measurement": "Plant response rating, Barnyardgrass", "setting": "[2]; [11]", "value": 50}, {"measurement": "Barnyardgrass plant response rating", "setting": "[2]; [12]", "value": 65}, {"measurement": "Plant response rating, Barnyardgrass", "setting": "[2]; [15]", "value": 70}, {"measurement": "Plant response rating, Barnyardgrass", "setting": "[2]; [13]", "value": 85}, {"measurement": "Plant response rating, Barnyardgrass", "setting": "[2]; [22]", "value": 15}, {"measurement": "Plant response rating, Barnyardgrass", "setting": "[2]; [23]", "value": 70}, {"measurement": "Plant response rating, Barnyardgrass", "setting": "[2]; [24]", "value": 100}, {"measurement": "Barnyardgrass plant response rating", "setting": "[2]; [25]", "value": 90}, {"measurement": "Plant response rating, Galium", "setting": "[3]; [11]", "value": 95}, {"measurement": "Galium plant response rating", "setting": "[3]; [12]", "value": 100}, {"measurement": "Plant response rating, Galium", "setting": "[3]; [13]", "value": 100}, {"measurement": "Plant response rating, Galium", "setting": "[3]; [22]", "value": 95}, {"measurement": "Plant response rating, Galium", "setting": "[3]; [23]", "value": 98}, {"measurement": "Plant response rating, Galium", "setting": "[3]; [24]", "value": 100}, {"measurement": "Galium plant response rating", "setting": "[3]; [25]", "value": 98}, {"measurement": "Galium plant response rating", "setting": "[3]; [14]", "value": 100}, {"measurement": "Plant response rating, Nutsedge, Yellow", "setting": "[4]; [11]", "value": 60}, {"measurement": "Nutsedge, Yellow plant response rating", "setting": "[4]; [12]", "value": 75}, {"measurement": "Plant response rating, Nutsedge, Yellow", "setting": "[4]; [13]", "value": 95}, {"measurement": "Plant response rating, Nutsedge, Yellow", "setting": "[4]; [22]", "value": 55}, {"measurement": "Plant response rating, Nutsedge, Yellow", "setting": "[4]; [23]", "value": 85}, {"measurement": "Plant response rating, Nutsedge, Yellow", "setting": "[4]; [24]", "value": 90}, {"measurement": "Nutsedge, Yellow plant response rating", "setting": "[4]; [25]", "value": 95}, {"measurement": "Nutsedge, Yellow plant response rating", "setting": "[4]; [14]", "value": 85}, {"measurement": "Plant response rating, Blackgrass", "setting": "[5]; [16]", "value": 60}, {"measurement": "Plant response rating, Blackgrass", "setting": "[5]; [17]", "value": 100}, {"measurement": "Plant response rating, Galium", "setting": "[6]; [16]", "value": 100}, {"measurement": "Plant response rating, Galium", "setting": "[6]; [17]", "value": 100}, {"measurement": "Plant response rating, Corn", "setting": "corn (Zea mays); [16]", "value": 10}, {"measurement": "Plant response rating, Corn", "setting": "corn (Zea mays); [17]", "value": 80}, {"measurement": "Plant response rating, Ragweed", "setting": "[7]; [18]", "value": 100}, {"measurement": "Plant response rating, Ragweed", "setting": "[7]; [19]", "value": 100}, {"measurement": "Ragweed plant response rating", "setting": "[7]; [20]", "value": 90}, {"measurement": "Plant response rating, Ragweed", "setting": "[7]; [21]", "value": 90}, {"measurement": "Plant response rating, Pigweed", "setting": "[8]; [18]", "value": 90}, {"measurement": "Plant response rating, Pigweed", "setting": "[8]; [19]", "value": 100}, {"measurement": "Pigweed plant response rating", "setting": "[8]; [20]", "value": 100}, {"measurement": "Plant response rating, Pigweed", "setting": "[8]; [21]", "value": 100}, {"measurement": "Plant response rating, Foxtail, Giant", "setting": "[9]; [18]", "value": 90}, {"measurement": "Plant response rating, Foxtail, Giant", "setting": "[9]; [19]", "value": 100}, {"measurement": "Foxtail, Giant plant response rating", "setting": "[9]; [20]", "value": 90}, {"measurement": "Plant response rating, Foxtail, Giant", "setting": "[9]; [21]", "value": 100}, {"measurement": "Plant response rating, Barnyardgrass", "setting": "[10]; [18]", "value": 90}, {"measurement": "Plant response rating, Barnyardgrass", "setting": "[10]; [19]", "value": 100}, {"measurement": "Barnyardgrass plant response rating", "setting": "[10]; [20]", "value": 90}, {"measurement": "Plant response rating, Barnyardgrass", "setting": "[10]; [21]", "value": 100}]}
